Counter-ions that a name gives are not always drawn.
Row | SMILES | flash point [°C]
1 | O=C(O)CCC(=O)O [butanedioic acid] | 160.00
2 | Cc1ccccc1C#N [2-methylbenzonitrile] | 84.00
3 | S=C([S-])NCCNC(=S)[S-].[Zn+2] [zinc;N-[2-(sulfidocarbothioylamino)ethyl]carbamodithioate] | 90.00
4 | CC(C)C(=O)OCC(C)(C)C(OC(=O)C(C)C)C(C)C (configuration not stated) | 121.00
5 | Cc1ccc(OP(=O)(Oc2ccc(C)cc2)Oc2ccc(C)cc2)cc1 [tris(4-methylphenyl) phosphate] | 210.00
6 | C/C=C/c1ccc(OC)cc1 [1-methoxy-4-[(E)-prop-1-enyl]benzene] | 91.00
7 | COC(F)(F)C(Cl)Cl [2,2-dichloro-1,1-difluoro-1-methoxyethane] | 63.00
8 | CC(=O)C=C=O [but-1-ene-1,3-dione] | 33.00
9 | CNc1ccccc1C(=O)OC [methyl 2-(methylamino)benzoate] | 91.00
10 | CCN(CC)c1ccccc1 [N,N-diethylaniline] | 85.00
11 | O=[N+]([O-])c1ccccc1Cl [1-chloro-2-nitrobenzene] | 127.00
12 | CC(C)=CCO [3-methylbut-2-en-1-ol] | 50.00
13 | C=CCl [chloroethene] | -79.00
14 | Cc1ccccc1[N+](=O)[O-] [1-methyl-2-nitrobenzene] | 106.00
15 | C=CCCC [pent-1-ene] | -51.00
16 | CCOc1cc(C=O)ccc1O [3-ethoxy-4-hydroxybenzaldehyde] | 145.00
17 | C1CCOC1 [oxolane] | -14.00
18 | CCSC(=O)N(CC)C1CCCCC1 [S-ethyl N-cyclohexyl-N-ethylcarbamothioate] | 139.00
19 | CC(O)CN(CC(C)O)CC(C)O (configuration not stated) [1-[bis(2-hydroxypropyl)amino]propan-2-ol] | 160.00
20 | O=C1CCCO1 [oxolan-2-one] | 98.00
21 | CCCCCCCCc1ccc(Nc2ccc(CCCCCCCC)cc2)cc1 [4-octyl-N-(4-octylphenyl)aniline] | 213.00
22 | NC(=O)OCCO [2-hydroxyethyl carbamate] | 188.00
23 | CCOc1ccc(N)cc1 [4-ethoxyaniline] | 116.00
24 | CCCCOC=O [butyl formate] | 18.00
25 | CCCSC(=O)Cl [S-propyl chloromethanethioate] | 62.00

Row | SMILES | flash point [°C]
26 | Oc1ccc(O)cc1 [benzene-1,4-diol] | 165.00
27 | O=Cc1ccccc1 [benzaldehyde] | 64.00
28 | CCOP(=S)(OCC)Oc1ccc([N+](=O)[O-])cc1 | 120.00
29 | C#CCOS(=O)OC1CCCCC1Oc1ccc(C(C)(C)C)cc1 (configuration not stated) [[2-(4-tert-butylphenoxy)cyclohexyl] prop-2-ynyl sulfite] | 28.00
30 | CCC(=O)OC [methyl propanoate] | -2.00
31 | C=CC(=C)Cl [2-chlorobuta-1,3-diene] | -20.00
32 | Oc1c(Cl)ccc(Cl)c1Cl [2,3,6-trichlorophenol] | 79.00
33 | O=P(N1CC1)(N1CC1)N1CC1 [1-[bis(aziridin-1-yl)phosphoryl]aziridine] | 163.00
34 | O=[N+]([O-])c1cc(Cl)ccc1Cl [1,4-dichloro-2-nitrobenzene] | 135.00
35 | Oc1c(Cl)cc(Cl)cc1Cl [2,4,6-trichlorophenol] | 99.00
36 | CC(C)CC(C)(C)C [2,2,4-trimethylpentane] | -12.00
37 | CCCCCC(=O)O [hexanoic acid] | 104.00
38 | CCC(=O)OC(=O)CC [propanoyl propanoate] | 63.00
39 | Cc1ccc(C(C)(C)O)cc1 [2-(4-methylphenyl)propan-2-ol] | 96.00
40 | CC(=O)NCCO [N-(2-hydroxyethyl)acetamide] | 177.00
41 | Cl[Si](Cl)(c1ccccc1)c1ccccc1 [dichloro(diphenyl)silane] | 142.00
42 | O=CC(Cl)(Cl)Cl [2,2,2-trichloroacetaldehyde] | 75.00
43 | O=C1CCO1 [oxetan-2-one] | 70.00
44 | Cc1cn(/C=C/C=O)c(=O)[nH]c1=O [(E)-3-(5-methyl-2,4-dioxopyrimidin-1-yl)prop-2-enal] | 207.00
45 | C=CC(=O)OCCCCCCCC(C)C [8-methylnonyl prop-2-enoate] | 116.00
46 | COc1ccccc1 [anisole] | 52.00
47 | Cc1cc(O)c(C(C)(C)C)cc1Sc1cc(C(C)(C)C)c(O)cc1C | 216.00
48 | CNC=O [N-methylformamide] | 98.00
49 | CCCCOCCOCCOC(C)=O [2-(2-butoxyethoxy)ethyl acetate] | 116.00
50 | Oc1ccccc1Br [2-bromophenol] | 42.00

Row | SMILES | flash point [°C]
51 | CCSC(=O)Cl [S-ethyl chloromethanethioate] | 31.00
52 | C=CCCCCCCCCCC [dodec-1-ene] | 100.00
53 | CCC[CH2][Sn]([Cl])([Cl])[CH2]CCC [dibutyl(dichloro)stannane] | 168.00
54 | CCC(C)=O [butan-2-one] | -3.00
55 | CC(C)(C)c1ccccc1O [2-tert-butylphenol] | 110.00
56 | C=CC(C)=O [but-3-en-2-one] | -7.00
57 | CCB(CC)CC [triethylborane] | -36.00
58 | O=C(Cl)c1ccc(C(=O)Cl)cc1 [benzene-1,4-dicarbonyl chloride] | 180.00
59 | OCCCCCO [pentane-1,5-diol] | 129.00
60 | [Ni+2].c1cc[cH-]c1.c1cc[cH-]c1 [cyclopenta-1,3-diene;nickel(2+)] | 4.00
61 | OCCCCl [3-chloropropan-1-ol] | 73.00
62 | c1ccc(-c2cccc(-c3ccccc3)c2)cc1 [1,3-diphenylbenzene] | 191.00
63 | C=CC(=O)OCC [ethyl prop-2-enoate] | 9.00
64 | CCCC(O)C(CC)CO (configuration not stated) [2-ethylhexane-1,3-diol] | 127.00
65 | Cc1cccc(O)c1 [3-methylphenol] | 86.00
66 | CCOCC.FB(F)F [ethoxyethane;trifluoroborane] | 64.00
67 | CC1=CCC(O)(C(C)C)CC1 (configuration not stated) [4-methyl-1-propan-2-ylcyclohex-3-en-1-ol] | 79.00
68 | COC(=O)c1ccccc1O [methyl 2-hydroxybenzoate] | 96.00
69 | O=NN1CCCC1 [1-nitrosopyrrolidine] | 83.00
70 | CC(C)c1cc(OO)cc(C(C)C)c1 [1-hydroperoxy-3,5-di(propan-2-yl)benzene] | 79.00
71 | O=C1CCC(=O)O1 [oxolane-2,5-dione] | 157.00
72 | c1ccc2c(c1)Nc1ccccc1S2 [10H-phenothiazine] | 202.00
73 | O=C(O)CCP(CCC(=O)O)CCC(=O)O [3-[bis(2-carboxyethyl)phosphanyl]propanoic acid] | 202.00
74 | ClC(Cl)=C(Cl)C(Cl)=C(Cl)Cl [1,1,2,3,4,4-hexachlorobuta-1,3-diene] | 90.00
75 | COC(C)COC(C)COC(C)CO (configuration not stated) [2-[2-(2-methoxypropoxy)propoxy]propan-1-ol] | 111.00

Row | SMILES | flash point [°C]
76 | C=C(C)C1CC=C(C)C(OC(C)=O)C1 (configuration not stated) [(2-methyl-5-prop-1-en-2-ylcyclohex-2-en-1-yl) acetate] | 97.00
77 | Cc1ccccc1N [2-methylaniline] | 85.00
78 | C=CC(=O)OCC(CC)CCCC (configuration not stated) [2-ethylhexyl prop-2-enoate] | 82.00
79 | Cc1cccc(C)c1N [2,6-dimethylaniline] | 91.00
80 | N#CCCCCC#N [hexanedinitrile] | 93.00
81 | CC(C)C [2-methylpropane] | -83.00
82 | OCCOc1ccccc1 [2-phenoxyethanol] | 121.00
83 | CCCCCCCCCCOC(=O)c1ccccc1C(=O)OCCCCCCCCCC [didecyl benzene-1,2-dicarboxylate] | 232.00
84 | S=C([S-])NCCNC(=S)[S-].[Mn+2] | 138.00
85 | CC(C)(C)c1cc(CCC(=O)OCC(COC(=O)CCc2cc(C(C)(C)C)c(O)c(C(C)(C)C)c2)(COC(=O)CCc2cc(C(C)(C)C)c(O)c(C(C)(C)C)c2)COC(=O)CCc2cc(C(C)(C)C)c(O)c(C(C)(C)C)c2)cc(C(C)(C)C)c1O | 297.00
86 | O=C=NCCCCCCN=C=O [1,6-diisocyanatohexane] | 140.00
87 | CCOP(=O)(SC(C)CC)SC(C)CC (configuration not stated) [2-[butan-2-ylsulfanyl(ethoxy)phosphoryl]sulfanylbutane] | 129.00
88 | CCC1CCC(CCC(=O)[O-])C1.CCC1CCC(CCC(=O)[O-])CC1.[Cu+2] (configuration not stated) | 38.00
89 | Nc1ccccc1F [2-fluoroaniline] | 60.00
90 | C=CC(C)(C)O [2-methylbut-3-en-2-ol] | 13.00
91 | O=[N+]([O-])c1ccc(Nc2ccccc2)cc1 [4-nitro-N-phenylaniline] | 190.00
92 | CC(C)COC(=O)C(C)C [2-methylpropyl 2-methylpropanoate] | 37.00
93 | CC(C)(C)c1ccccc1 [tert-butylbenzene] | 60.00
94 | CCCCCC1OC1CC1OC1CCCCCCCC(=O)OCC(COC(=O)CCCCCCCC1OC1CC1OC1CCCCC)OC(=O)CCCCCCCC1OC1CC1OC1CCCCC (configuration not stated) | 307.00
95 | CN1CCCC1c1cccnc1 (configuration not stated) [3-(1-methylpyrrolidin-2-yl)pyridine] | 101.00
96 | NCCN [ethane-1,2-diamine] | 34.00
97 | CC(=O)OOC(C)=O [acetyl ethaneperoxoate] | 45.00

— a flash point compilation (Sun et al. 2020)
